ChEMBL document CHEMBL3217648, “Glycosylated porphyrin derivatives and their photodynamic activity in cancer cells” (Medchemcomm, 2011)
The source made the active and inactive calls. No cut-off for these calls is given here.

Tests used:
HeLa [1] = test: Phototoxicity against human HeLa cells at 1 uM after 24 hrs followed by halogen light irradiation by MTS assay; type: functional, cell-based
HCT-116 = test: Phototoxicity against human HCT116 cells at 1 uM after 24 hrs followed by halogen light irradiation by MTS assay; type: functional, cell-based
[2] = Dark toxicity against human HeLa cells assessed as cell viability at 1 uM after 24 hrs by MTS assay; type: cell-based; settings: read-out: Survival
[3] = Dark toxicity against human HCT116 cells assessed as cell viability at 1 uM after 24 hrs by MTS assay; type: cell-based, HCT-116; settings: read-out: Survival
HeLa [4] = test: Cellular uptake in human HeLa cells at 1 uM after 24 hrs by fluorescence microscopy; type: ADME, cell-based

Row | SMILES | Activity (HeLa [1]) | Activity (HCT-116) | viability at 24 h, 1 µM [2] [%] | viability at 24 h, 1 µM [3] [%] | Drug uptake (HeLa [4])
1 | COc1cccc(OC)c1-c1c2nc(c([C@H]3O[C@@H]4OC(C)(C)O[C@@H]4[C@H]4OC(C)(C)O[C@H]43)c3ccc([nH]3)c(-c3c(OC)cccc3OC)c3nc(c([C@H]4O[C@@H]5OC(C)(C)O[C@@H]5[C@H]5OC(C)(C)O[C@H]54)c4ccc1[nH]4)C=C3)C=C2 | inactive | inactive | – | – | –
2 | CC1(C)O[C@H]2[C@@H](O1)[C@@H](c1c3nc(c(-c4ccsc4)c4ccc([nH]4)c([C@H]4O[C@@H]5OC(C)(C)O[C@@H]5[C@H]5OC(C)(C)O[C@H]54)c4nc(c(-c5ccsc5)c5ccc1[nH]5)C=C4)C=C3)O[C@@H]1OC(C)(C)O[C@@H]12 | Active | Active | > 90 | > 90 | Active
3 | CSc1ccc(-c2c3nc(c([C@H]4O[C@@H]5OC(C)(C)O[C@@H]5[C@H]5OC(C)(C)O[C@H]54)c4ccc([nH]4)c(-c4ccc(SC)cc4)c4nc(c([C@H]5O[C@@H]6OC(C)(C)O[C@@H]6[C@H]6OC(C)(C)O[C@H]65)c5ccc2[nH]5)C=C4)C=C3)cc1 | Active | Active | > 90 | > 90 | Not Active
4 | COc1ccc(-c2c3nc(c([C@H]4O[C@@H]5OC(C)(C)O[C@@H]5[C@H]5OC(C)(C)O[C@H]54)c4ccc([nH]4)c(-c4ccc(OC)cc4)c4nc(c([C@H]5O[C@@H]6OC(C)(C)O[C@@H]6[C@H]6OC(C)(C)O[C@H]65)c5ccc2[nH]5)C=C4)C=C3)cc1 | Active | Active | > 90 | > 90 | Not Active
5 | CC1(C)O[C@H]2[C@@H](O1)[C@@H](c1c3nc(c(-c4ccc(OC(F)(F)F)cc4)c4ccc([nH]4)c([C@H]4O[C@@H]5OC(C)(C)O[C@@H]5[C@H]5OC(C)(C)O[C@H]54)c4nc(c(-c5ccc(OC(F)(F)F)cc5)c5ccc1[nH]5)C=C4)C=C3)O[C@@H]1OC(C)(C)O[C@@H]12 | inactive | inactive | – | – | –
6 | CC1(C)O[C@H]2[C@@H](O1)[C@@H](c1c3nc(c(-c4ccc([N+](=O)[O-])cc4)c4ccc([nH]4)c([C@H]4O[C@@H]5OC(C)(C)O[C@@H]5[C@H]5OC(C)(C)O[C@H]54)c4nc(c(-c5ccc([N+](=O)[O-])cc5)c5ccc1[nH]5)C=C4)C=C3)O[C@@H]1OC(C)(C)O[C@@H]12 | inactive | inactive | – | – | –
7 | CC1(C)O[C@H]2[C@@H](O1)[C@@H](c1c3nc(c(-c4ccc(Cl)cc4)c4ccc([nH]4)c([C@H]4O[C@@H]5OC(C)(C)O[C@@H]5[C@H]5OC(C)(C)O[C@H]54)c4nc(c(-c5ccc(Cl)cc5)c5ccc1[nH]5)C=C4)C=C3)O[C@@H]1OC(C)(C)O[C@@H]12 | inactive | inactive | – | – | –
8 | CC1(C)O[C@H]2[C@@H](O1)[C@@H](c1c3nc(c(-c4c(F)c(F)c(F)c(F)c4F)c4ccc([nH]4)c([C@H]4O[C@@H]5OC(C)(C)O[C@@H]5[C@H]5OC(C)(C)O[C@H]54)c4nc(c(-c5c(F)c(F)c(F)c(F)c5F)c5ccc1[nH]5)C=C4)C=C3)O[C@@H]1OC(C)(C)O[C@@H]12 | inactive | inactive | – | – | –
9 | CC1(C)O[C@H]2[C@@H](O1)[C@@H](C=O)O[C@@H]1OC(C)(C)O[C@@H]12 | inactive | inactive | – | – | –
10 | CC1(C)O[C@H]2[C@@H](O1)[C@@H](c1c3nc(c(-c4ccccc4)c4ccc([nH]4)c([C@H]4O[C@@H]5OC(C)(C)O[C@@H]5[C@H]5OC(C)(C)O[C@H]54)c4nc(c(-c5ccccc5)c5ccc1[nH]5)C=C4)C=C3)O[C@@H]1OC(C)(C)O[C@@H]12 | inactive | inactive | – | – | –
